Key:
Assay type in all cases: in vivo
[1] = tested on: Beet Armyworm (Spodoptera exigua, LAPHEG) ("BAW"); assay: Bioassay on Beet Armyworm (BAW), 128-well diet tray assay; conditions: 168 h, 50 μg/cm^2 on artificial diet, second instar larvae, five to seven days, 25° C., average of eight wells, read-out: BAW % Control (or Mortality) rating
Description: (§1) Certain molecules disclosed in this document were tested against BAW and CEW using procedures described in the following examples. In the reporting of the results, the “BAW & CL Rating Table” was used (See Table Section).
Bioassays on BAW were conducted using a 128-well diet tray assay. one to five second instar BAW larvae were placed in each well (3 mL) of the diet tray that had been previously filled with 1 mL of artificial diet to which 50 μg/cm^2 of the test compound (dissolved in 50 μL of 90:10 acetone-water mixture) had been applied (to each of eight wells) and then allowed to dry. Trays were covered with a clear self-adhesive cover and held at 25° C., 14:10 light-dark for five to seven days. Percent mortality was recorded for the larvae in each well; activity in the eight wells was then averaged. The results are indicated in the table entitled “Table ABC: Biological Results” (See Table Section).

[2] = tested on: Cabbage Looper (Trichoplusia ni, TRIPNI) ("CL"); assay: Bioassay on Cabbage Looper (CL), 128-well diet tray assay; conditions: 168 h, read-out: CL % Control (or Mortality) rating
Description: as §1
Bioassays on CL were conducted using a 128-well diet tray assay. one to five second instar CL larvae were placed in each well (3 mL) of the diet tray that had been previously filled with 1 mL of artificial diet to which 50 μg/cm^2 of the test compound (dissolved in 50 μL of 90:10 acetone-water mixture) had been applied (to each of eight wells) and then allowed to dry. Trays were covered with a clear self-adhesive cover and held at 25° C., 14:10 light-dark for five to seven days. Percent mortality was recorded for the larvae in each well; activity in the eight wells was then averaged. The results are indicated in the table entitled “Table ABC: Biological Results” (See Table Section).

[3] = tested on: Green Peach Aphid (Myzus persicae, MYZUPE) ("GPA"); assay: Bioassay on Green Peach Aphid (GPA), foliar spray on cabbage seedlings; conditions: 72 h, 200 ppm foliar spray on cabbage seedlings, three days, Abbott corrected % control, read-out: GPA % Control (or Mortality) rating
Description: Certain molecules disclosed in this document were tested against GPA using procedures described in the following example. In the reporting of the results, the “GPA Rating Table” was used (See Table Section).
Cabbage seedlings grown in 3-inch pots, with 2-3 small (3-5 cm) true leaves, were used as test substrate. The seedlings were infested with 20-50 GPA (wingless adult and nymph stages) one day prior to chemical application. Four pots with individual seedlings were used for each treatment. Test compounds (2 mg) were dissolved in 2 mL of acetone/methanol (1:1) solvent, forming stock solutions of 1000 ppm test compound. The stock solutions were diluted 5× with 0.025% Tween 20 in water to obtain the solution at 200 ppm test compound. A hand-held aspirator-type sprayer was used for spraying a solution to both sides of […] leaves until runoff. Reference plants (solvent check) were sprayed with the diluent only containing 20% by volume of acetone/methanol (1:1) solvent. Treated plants were held in a holding room for three days at approximately 25° C. and ambient relative humidity (RH) prior to grading. Evaluation was conducted by counting the number of live aphids per plant under a microscope. Percent Control was measured by using Abbott's correction formula (W. S. Abbott, “A Method of Computing the Effectiveness of an Insecticide” J. Econ. Entomol. 18 (1925), pp. 265-267) as follows. Corrected % Control=100*(X−Y)/X • where • X=No. of live aphids on solvent check plants and • Y=No. of live aphids on treated plants

[4] = tested on: Yellow Fever Mosquito (Aedes aegypti, AEDSAE) ("YFM"); assay: Bioassay on Yellow Fever Mosquito (YFM), 96-well plate larval assay; conditions: about 1 day-old larvae, from 4000 ppm master plate, scored on mortality after 3 days
Description: Certain molecules disclosed in this document were tested against YFM using procedures described in the following paragraph. In the reporting of the results, the “YFM Rating Table” was used (See Table Section).
Master plates containing 400 μg of a molecule dissolved in 100 μL of dimethyl sulfoxide (DMSO) (equivalent to a 4000 ppm solution) are used. A master plate of assembled molecules contains 15 μL per well. To this plate, 135 μL of a 90:10 water:acetone mixture is added to each well. A robot (Biomek® NXP Laboratory Automation Workstation) is programmed to dispense 15 μL aspirations from the master plate into an empty 96-well shallow plate (“daughter” plate). There are 6 reps (“daughter” plates) created per master. The created daughter plates are then immediately infested with YFM larvae.
The day before plates are to be treated, mosquito eggs are placed in Millipore water containing liver powder to begin hatching (4 g. into 400 mL). After the daughter plates are created using the robot, they are infested with 220 μL of the liver powder/larval mosquito mixture (about 1 day-old larvae). After plates are infested with mosquito larvae, a non-evaporative lid is used to cover the plate to reduce drying. Plates are held at room temperature for 3 days prior to grading. After 3 days, each well is observed and scored based on mortality.

SMILES | mortality at 50 µg/cm2 [1] [%] | mortality at 50 µg/cm2 [2] [%] | mortality at 200 ppm [3] [%] | YFM % Control (or Mortality) rating [4]
O=C(Nc1ccc(-c2ncn(-c3ccc(OC(F)(F)F)cc3)n2)cc1)c1ccccc1Nc1ccccc1 [F7, 2-(phenylamino)-N-(4-(1-(4-(trifluoromethoxy)phenyl)-1H-1,2,4-triazol-3-yl)phenyl)benzamide] | 50 to 100 | 50 to 100 | 0 to 80 | A (80-100)
Cc1cccc(C)c1Nc1ccccc1C(=O)Nc1ccc(-c2ncn(-c3ccc(OC(F)(F)F)cc3)n2)cc1 [F1, 2-((2,6-dimethylphenyl)amino)-N-(4-(1-(4-(trifluoromethoxy)phenyl)-1H-1,2,4-triazol-3-yl)phenyl)benzamide] | 0 | 0 | 0 to 80 | –
COc1cccc(C(=O)Nc2ccc(-c3ncn(-c4ccc(OC(F)(F)C(F)(F)F)cc4)n3)cc2)c1 [F14, 3-Methoxy-N-(4-(1-(4-(perfluoroethoxy)phenyl)-1H-1,2,4-triazol-3-yl)phenyl)benzamide] | 50 to 100 | 50 to 100 | 0 | A (80-100)
CC(C)c1cccc(C(=O)NCCc2ccc(-c3ncn(-c4ccc(OC(F)(F)F)cc4)n3)cc2)c1 [F41, 3-Isopropyl-N-(4-(1-(4-(trifluoromethoxy)phenyl)-1H-1,2,4-triazol-3-yl)phenethyl)benzamide] | 0 | 50 to 100 | 0 | D (No activity noticed in this bioassay)

— US9533961B2, “Molecules having certain pesticidal utilities, and intermediates, compositions, and processes related thereto” (priority 2014, dated 2017)
